According to ChEMBL document CHEMBL1157764, “Conserved high activity binding peptides are involved in adhesion of two detergent-resistant membrane-associated merozoite proteins to red blood cells during invasion” (J Med Chem, 2010):

Species on record: Homo sapiens
Assay: Binding affinity to RBC membrane receptor in human RBCs assessed as specific binding activity measured as ratio of specifically bound peptide/added peptide by gamma counter

Activity, > 2%:
CC(C)[C@H](NC(=O)[C@H](Cc1cnc[nH]1)NC(=O)[C@@H](NC(=O)[C@H](CCCCN)NC(=O)[C@H](CCC(=O)O)NC(=O)[C@@H](NC(=O)[C@H](CC(N)=O)NC(=O)[C@H](CC(N)=O)NC(=O)[C@H](CCCNC(=N)N)NC(=O)[C@H](Cc1ccccc1)NC(=O)[C@H](C)NC(=O)[C@H](Cc1cnc[nH]1)NC(=O)[C@@H](NC(=O)[C@@H](NC(=O)[C@H](CO)NC(=O)[C@H](CCC(=O)O)NC(=O)[C@H](CC(N)=O)NC(=O)[C@@H](N)CO)C(C)C)[C@@H](C)O)[C@@H](C)O)[C@@H](C)O)C(=O)N[C@@H](Cc1cnc[nH]1)C(=O)N[C@@H](CCCCN)C(=O)N[C@@H](Cc1ccc(O)cc1)C(=O)O
CC[C@H](C)[C@H](NC(=O)[C@@H](NC(=O)[C@H](Cc1ccc(O)cc1)NC(=O)[C@H](CCC(=O)O)NC(=O)[C@H](CCCCN)NC(=O)[C@H](CCC(=O)O)NC(=O)[C@H](Cc1ccc(O)cc1)NC(=O)[C@H](CO)NC(=O)[C@H](Cc1ccccc1)NC(=O)[C@H](Cc1ccc(O)cc1)NC(=O)[C@H](CO)NC(=O)[C@@H](NC(=O)[C@H](CCSC)NC(=O)[C@H](Cc1ccc(O)cc1)NC(=O)[C@@H](NC(=O)CNC(=O)[C@H](CCCCN)NC(=O)[C@@H]1CCCN1C(=O)[C@@H](N)Cc1ccccc1)[C@@H](C)O)[C@@H](C)O)C(C)C)C(=O)N[C@@H](CO)C(=O)O
CC[C@H](C)[C@H](NC(=O)[C@@H]1CCCN1C(=O)[C@H](Cc1ccccc1)NC(=O)[C@H](Cc1cnc[nH]1)NC(=O)[C@H](Cc1ccccc1)NC(=O)[C@H](CCC(N)=O)NC(=O)[C@@H](NC(=O)[C@H](CCC(=O)O)NC(=O)[C@@H](NC(=O)[C@H](Cc1ccc(O)cc1)NC(=O)[C@H](CC(=O)O)NC(=O)[C@H](CCC(=O)O)NC(=O)[C@@H](N)CC(C)C)C(C)C)C(C)C)C(=O)N[C@@H](Cc1ccc(O)cc1)C(=O)N[C@@H](Cc1ccc(O)cc1)C(=O)N[C@H](C(=O)N[C@@H](CCCCN)C(=O)N[C@@H](Cc1ccccc1)C(=O)N[C@@H](CC(C)C)C(=O)N[C@@H](Cc1ccc(O)cc1)C(=O)O)[C@H](C)O
CC[C@H](C)[C@H](NC(=O)[C@H](CC(=O)O)NC(=O)[C@H](CCCCN)NC(=O)[C@H](CCC(=O)O)NC(=O)[C@H](CC(=O)O)NC(=O)[C@H](CCC(N)=O)NC(=O)[C@@H]1CCCN1C(=O)[C@H](NC(=O)[C@@H](NC(=O)[C@H](CCCCN)NC(=O)[C@H](CC(N)=O)NC(=O)[C@H](NC(=O)[C@H](CCSC)NC(=O)[C@@H](NC(=O)[C@@H](NC(=O)[C@H](CCC(=O)O)NC(=O)[C@H](CCC(N)=O)NC(=O)[C@@H](N)CC(=O)O)[C@@H](C)CC)[C@@H](C)O)[C@@H](C)CC)[C@H](C)O)[C@@H](C)CC)C(=O)N[C@@H](CC(C)C)C(=O)N[C@@H](Cc1ccccc1)C(=O)N[C@@H](Cc1ccc(O)cc1)C(=O)O
CC[C@H](C)[C@H](NC(=O)[C@H](CC(=O)O)NC(=O)[C@H](CCCCN)NC(=O)[C@H](CCCNC(=N)N)NC(=O)[C@H](Cc1ccccc1)NC(=O)[C@H](CCCNC(=N)N)NC(=O)[C@@H](NC(=O)[C@@H](NC(=O)[C@@H]1CCCN1C(=O)[C@H](CC(C)C)NC(=O)CN)[C@H](C)O)[C@@H](C)CC)C(=O)N[C@@H](CO)C(=O)N[C@H](C(=O)N[C@@H](CCC(=O)O)C(=O)N[C@@H](CC(N)=O)C(=O)N[C@@H](CC(C)C)C(=O)N[C@H](C(=O)N[C@@H](Cc1ccc(O)cc1)C(=O)N[C@@H](CC(C)C)C(=O)N[C@@H](CC(N)=O)C(=O)O)[C@@H](C)O)C(C)C
CC[C@H](C)[C@H](NC(=O)[C@H](CCCCN)NC(=O)[C@@H](NC(=O)[C@H](Cc1ccc(O)cc1)NC(=O)CNC(=O)[C@H](CCC(=O)O)NC(=O)[C@H](CC(=O)O)NC(=O)[C@H](CO)NC(=O)[C@H](Cc1ccc(O)cc1)NC(=O)[C@H](CC(C)C)NC(=O)[C@H](CC(N)=O)NC(=O)[C@H](CCSC)NC(=O)[C@@H](NC(=O)[C@H](CCC(C)=O)NC(=O)[C@H](CC(N)=O)NC(=O)[C@H](CCCCN)NC(=O)[C@@H](N)Cc1c[nH]c2ccccc12)C(C)C)[C@@H](C)O)C(=O)N[C@@H](CC(N)=O)C(=O)N[C@H](C(=O)N[C@@H](CC(C)C)C(=O)O)[C@@H](C)O
CC[C@H](C)[C@H](NC(=O)[C@H](CCCCN)NC(=O)[C@H](CCCNC(=N)N)NC(=O)[C@@H]1CCCN1C(=O)[C@@H](NC(=O)[C@@H](NC(=O)[C@H](CCCCN)NC(=O)[C@@H](NC(=O)[C@H](CCCCN)NC(=O)[C@@H](NC(=O)[C@@H](NC(=O)[C@@H](N)Cc1ccc(O)cc1)C(C)C)[C@@H](C)CC)[C@@H](C)CC)[C@@H](C)O)C(C)C)C(=O)N[C@@H](CCC(N)=O)C(=O)N[C@@H](CS)C(=O)N[C@@H](CCC(=O)O)C(=O)N[C@@H](CC(C)C)C(=O)N[C@@H](CC(N)=O)C(=O)N[C@H](C(=O)N[C@@H](CC(N)=O)C(=O)N[C@@H](CC(=O)O)C(=O)O)[C@@H](C)O
CC[C@H](C)[C@H](NC(=O)[C@H](CO)NC(=O)[C@H](CCCNC(=N)N)NC(=O)[C@@H](NC(=O)[C@@H](NC(=O)[C@@H](N)CCC(N)=O)[C@@H](C)O)[C@@H](C)CC)C(=O)N[C@@H](C(=O)N[C@@H](CC(C)C)C(=O)N[C@@H](CC(C)C)C(=O)N[C@@H](CS)C(=O)N[C@@H](CO)C(=O)N[C@@H](CC(N)=O)C(=O)N[C@@H](CC(C)C)C(=O)N[C@@H](Cc1cnc[nH]1)C(=O)N[C@@H](CC(=O)O)C(=O)N[C@@H](Cc1c[nH]c2ccccc12)C(=O)N[C@@H](CCCCN)C(=O)N[C@@H](CC(C)C)C(=O)N[C@@H](Cc1ccccc1)C(=O)N[C@@H](CS)C(=O)N[C@@H](Cc1ccc(O)cc1)C(=O)O)[C@@H](C)CC
CC[C@H](C)[C@H](NC(=O)[C@H](Cc1ccc(O)cc1)NC(=O)[C@@H](N)CC(N)=O)C(=O)N[C@@H](CCC(=O)O)C(=O)N[C@@H](CCC(=O)O)C(=O)N1CCC[C@H]1C(=O)N[C@@H](Cc1ccccc1)C(=O)N[C@@H](CO)C(=O)N[C@H](C(=O)N[C@H](C(=O)N[C@@H](Cc1ccccc1)C(=O)N[C@H](C(=O)N[C@H](C(=O)N[C@@H](CC(C)C)C(=O)N[C@@H](CCC(N)=O)C(=O)N[C@H](C(=O)N[C@@H](CCC(N)=O)C(=O)N[C@@H](CCSC)C(=O)N[C@@H](CC(N)=O)C(=O)O)[C@@H](C)O)[C@@H](C)CC)[C@@H](C)O)[C@@H](C)O)[C@@H](C)O
CC[C@H](NC(=O)[C@H](CC(C)C)NC(=O)[C@H](CCCCN)NC(=O)[C@H](CC(N)=O)NC(=O)[C@H](CC(N)=O)NC(=O)[C@H](Cc1ccc(O)cc1)NC(=O)[C@@H](NC(=O)[C@H](Cc1ccc(O)cc1)NC(=O)[C@H](CCCCN)NC(=O)[C@H](Cc1ccc(O)cc1)NC(=O)[C@@H](NC(=O)[C@H](Cc1ccc(O)cc1)NC(=O)[C@@H](NC(=O)[C@H](Cc1ccc(O)cc1)NC(=O)[C@@H](NC(=O)[C@H](CCCCN)NC(=O)[C@H](CC(N)=O)NC(=O)[C@@H](NC(=O)[C@@H](N)[C@@H](C)O)C(C)C)[C@@H](C)CC)[C@@H](C)O)[C@@H](C)O)[C@@H](C)CC)C(=O)N[C@@H](C)C(=O)O
